Test results as given in US7470669B2, “Isolated polypeptide comprising a leptin fragment” (Serono Genetics Institute, S.A., priority 1999, dated 2008).
Marks after values point to notes of the source that are not given here.

Columns and labels:
[1] = tested on: LSR; assay: LSR activity (oleate-induced 125I-LDL binding, uptake, degradation) in primary cultures of rat hepatocytes; format: cell-based; settings: for oleate-induced LDL degradation / oleate-induced LDL binding: primary rat hepatocytes; for oleate-induced LDL degradation: 22-mer peptides; for oleate-induced LDL binding: peptide concentrations <50 μg/mL
Experimental: FIGS. 6A, 6B, and 6C show the effect of leptin on ^125I-LDL and ^125I-chylomicron binding to LSR in primary cultures of rat hepatocytes. For FIG. 6A, primary cultures of rat hepatocytes (48 hours after plating) were incubated at 37° C. for 30 min in the absence (□) or presence (▪) of 50 ng/mL leptin in Buffer A, followed by a 20 min incubation at 37° C. with 0.5 mM oleate. The cells were then washed with ice-cold PBS, precooled for 10 min, and then incubated for 1 h at 4° C. with increasing concentrations of ^125I-LDL in Buffer A. Cells were washed, were lysed in 0.1 N NaOH and were counted for radioactivity. Results are shown as the mean of duplicate determinations. For FIG. 6B, primary cultures of rat hepatocytes were incubated at 37° C. for 30 min with or without 20 ng/mL leptin followed by incubation at 37° C. for 4 h with 6 μg protein/mL ^125I-chylomicrons in the absence or presence of 0.5 mM oleate in Buffer A. The cells were then washed and the ^125I-chylomicrons bound to the cell surface were released into the media by incubation with 10 mM suramin. The media was recovered and the radioactivity was measured. Results are shown as the mean±SD of six determinations. Fir FIG. 6C, after incubation at 37° C. for 30 min with 50 ng/mL leptin, the cells were incubated at room temperature for 30 min with 200 μg IgG/mL antibodies directed against rat LSR protein or irrelevant IgG. The amount of ^125I-chylomicrons bound was determined, and results are shown as means±SD of triplicate (irrelevant) or quadruplicate (anti-LSR) determinations.
FIGS. 7A and 7B show a comparison of the effect of human and mouse leptin on LSR activity in rat hepatocytes and on postprandial increase in plasma TG in db^Pas/db^Pas mice. For FIG. 7A, primary cultures of rat hepatocytes were incubated 30 min at 37° C. without (open bar) or with 10 ng/mL recombinant human (solid bar) or mouse (hatched bar) leptin in Buffer A. Oleate (0.5 mM) and ^125I-LDL (20 μg/mL) were added and the cells were incubated 2 h at 37° C. The media were removed and were analyzed for TCA-soluble degradation products. The mean of duplicate determinations is shown. For FIG. 7B, db^Pas/db^Pas mice were given a test meal as previously described, followed immediately by injection i.p. of saline (open bar, n=4), human leptin (1 μg/animal; solid bar, n=3) or mouse leptin (0.25 μg/animal; hatched bar; n=3). The data represent the difference in TG concentrations measured at t=0 and the average of the concentrations at 3 and 4 hours. Results are shown as mean±SEM.
Cells were incubated 30 min at 37° C. with increasing concentrations of mouse (▪) or human (●) leptin peptide. Following this, 0.5 mM oleate and 20 μg/mL ^125I-LDL were added and the cells were further incubated for 2 h at 37° C. The cells were washed, and the amount of oleate-induced ^125I-LDL bound and degraded was measured as described previously (Bihain, B. E., and Yen, F. T. (1992). Free fatty acids activate a high-affinity saturable pathway for degradation of low-density lipoproteins in fibroblasts from a subject homozygous for familial hypercholesterolemia. Biochemistry 31, 4628-4636).
FIGS. 11A and 11B show the effect of mouse leptin (FIG. 11A) or leptin peptide (FIG. 11B) on postprandial plasma TG response in ob/ob mice. […] Postprandial triglyceridemia was measured as described previously. Each point represents the mean±SEM (A: saline, n=8, leptin, n=7; leptin peptide: saline, n=8, leptin, n=8). […] Primary cultures of rat hepatocytes were incubated 30 min at 37° C. with increasing concentrations of mouse leptin peptide. Oleate (0.5 mM) and ^125I-LDL (20 μg/mL) were added and the cells were incubated 2 h at 37° C. After washing, the amount of 125I-LDL bound to the cell surface was measured as described in the Examples section herein. […]

[2] = tested on: ob/ob mice; assay: Postprandial plasma TG response after high-fat test meal in ob/ob mice; format: in vivo, mouse; settings: for postprandial lipemic response: single subcutaneous injection of 50 ng
Experimental: FIGS. 11A and 11B show the effect of mouse leptin (FIG. 11A) or leptin peptide (FIG. 11B) on postprandial plasma TG response in ob/ob mice. […] Postprandial triglyceridemia was measured as described previously. Each point represents the mean±SEM (A: saline, n=8, leptin, n=7; leptin peptide: saline, n=8, leptin, n=8). […] Primary cultures of rat hepatocytes were incubated 30 min at 37° C. with increasing concentrations of mouse leptin peptide. Oleate (0.5 mM) and ^125I-LDL (20 μg/mL) were added and the cells were incubated 2 h at 37° C. After washing, the amount of 125I-LDL bound to the cell surface was measured as described in the Examples section herein.
Mice that were fasted for 2-3 hours were gavage-fed 300 μL of a test meal consisting of 60% fat (37% saturated, 27% mono-, and 36% polyunsaturated fatty acids), 20% protein and 20% carbohydrate, and providing 56 kcal of energy/kg (1.5 g butter, 1.5 g sunflower oil, 2.5 g nonfat dry milk, 2.5 g sucrose and 3 ml water). Immediately after the meal, the animals were injected intravenously (db/db) or intraperitoneally (db^Pas/db^Pas) with either 200 μL physiological saline or 200 μL of the same solution containing recombinant mouse leptin. At selected time intervals, 20 μL of blood were collected from the orbital (db^Pas/db^Pas) or tail (db/db) vein into ice-cold microfuge tubes containing 4 mmol/L EDTA. Plasma was obtained by centrifugation at 2500 rpm for 20 min at 4° C., and was frozen as aliquots at −80° C. before analysis. TG concentrations were determined using a commercially available enzymatic kit with controls included in each assay (Precinorm L, Roche-Boehringer Mannheim; Lyotrol N, BioMérieux).
The inhibition of the intestinal absorption of dietary lipids by leptin was also investigated. Overnight-fasted ob/ob mice were gavage-fed a high fat test meal. […] Blood samples were taken at 2 and 3 h after the test meal, and plasma TG concentrations were measured (see Table, below). […]

[3] = molecular target: LDL-receptor (Homo sapiens, UniProt P01130); assay: Degradation of LDL by the LDL-receptor; format: cell-based; settings: leptin up to 2 μg/mL
Chain of LDL-receptor (P01130 22-860, species assumed): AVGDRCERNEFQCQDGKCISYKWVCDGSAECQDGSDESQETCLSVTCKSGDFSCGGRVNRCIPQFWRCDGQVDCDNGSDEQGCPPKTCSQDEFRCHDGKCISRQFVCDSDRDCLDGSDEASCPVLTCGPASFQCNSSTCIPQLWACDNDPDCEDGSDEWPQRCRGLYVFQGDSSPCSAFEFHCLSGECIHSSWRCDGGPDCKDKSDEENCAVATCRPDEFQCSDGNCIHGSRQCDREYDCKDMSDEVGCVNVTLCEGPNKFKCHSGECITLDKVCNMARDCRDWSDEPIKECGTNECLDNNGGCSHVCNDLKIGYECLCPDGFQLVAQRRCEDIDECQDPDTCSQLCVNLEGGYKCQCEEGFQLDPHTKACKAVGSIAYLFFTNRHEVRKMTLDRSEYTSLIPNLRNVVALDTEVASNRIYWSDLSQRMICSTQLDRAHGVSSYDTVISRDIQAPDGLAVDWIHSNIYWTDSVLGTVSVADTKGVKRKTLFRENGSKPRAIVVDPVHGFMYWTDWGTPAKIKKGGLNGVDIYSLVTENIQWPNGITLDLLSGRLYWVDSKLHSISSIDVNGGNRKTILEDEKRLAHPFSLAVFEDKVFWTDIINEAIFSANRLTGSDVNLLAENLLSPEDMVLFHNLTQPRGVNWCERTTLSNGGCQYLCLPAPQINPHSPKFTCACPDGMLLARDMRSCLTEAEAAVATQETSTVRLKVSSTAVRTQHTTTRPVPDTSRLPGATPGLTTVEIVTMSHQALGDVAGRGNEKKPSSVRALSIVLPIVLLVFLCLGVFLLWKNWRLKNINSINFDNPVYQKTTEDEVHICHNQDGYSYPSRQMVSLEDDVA

Substance | oleate-induced LDL degradation [1] | oleate-induced LDL binding [1] | Plasma TG 2-3 hours after test meal ([2]; i.v. 0.5 μg recombinant mouse leptin and/or 2.5 mg lactoferrin, mean ± SD) | postprandial lipemic response [2] | degradation of LDL by the LDL-receptor [3] | oleate-induced binding of 125I-LDL ([1]; primary cultures of rat hepatocytes (FIG. 11B insert))
CHLPWASGLETLDSLGGVLEAS (listed as Homo sapiens) [human peptide, human leptin fragment residues 117-138, 22-mer] | inhibitory effect | increased |  |  |  | 
leptin: plasma protein of 16 kDa produced by adipocytes; recombinant human or mouse leptin, species depends on the experiment |  |  | 0.79 ± 0.1* mg/mL | decreases the postprandial lipemic response | no detectable effect | 
CSLPQTSGLQKPESLDGVLEAS (listed as Mus musculus) [mouse peptide, mouse leptin fragment residues 117-138, 22-mer] | inhibitory effect | increased |  | reduced the postprandial lipemic response |  | stimulate
